# In patent US20250215016A1, “ISOXAZOLE-HETEROCYCLIC DERIVATIVE, PHARMACEUTICAL COMPOSITION AND USE” (SHANGHAI SIMR BIOTECHNOLOGY CO., LTD, priority 2022, published 2025):
# How the values were obtained:
# [1] = target: human α2β3γ2 receptor (α2-GABAA receptor) (Homo sapiens (Human), UniProt P18507+P47869); experiment: Radioligand (3H-flunitrazepam) competition binding assay, BZD site; α2 vs α5 binding selectivity; settings: ratio of Ki at α2β3γ2 to Ki at α5β3γ2
# From the text: (§1) α, β and γ subunits are essential for the formation of a complete functional GABAA receptor. In this example, HEK293 cell strains stably expressing human α5-GABAA receptor (comprising α5β3γ2 subunit) and α2-GABAA receptor (comprising α2β3γ2 subunit) were constructed and screened, respectively, by liposome transfection method (Felgner, P. L., et al., Proceedings of the National Academy of Sciences, 1987, 84:7413-7417). The specific subunit protein sequences are as follows: α5 subunit (protein sequence can be found in GenBank accession number: NM_000810.3); α2 subunit (protein sequence can be found in GenBank accession number: NM_000807.4); β3 subunit (protein sequence can be found in GenBank accession number: NM_000814.5); γ2 subunit (protein sequence can be found in GenBank accession number: NM_000816.3).
# (§2) The above cell lines were subcultured. Amplification of α5β3γ2-HEK293 and α2β3γ2-HEK293 cells was used to test the affinity of the compounds to benzodiazepine site (BZD) of the GABAA receptor. During the passage of α5β3γ2-HEK293 cells, some of the suspended cells were spread on a glass slide pretreated with Poly-D-Lysine for electrophysiological testing.
# (§3) Flunitrazepam is a non-specific reagent that binds to the BZD site efficiently. The affinity of the compounds to the BZD sites of the human α5β3γ2 and α2β3γ2 receptors can be determined by competing the compound with ^3H-flunitrazepam (isotope ^3H-labeled flunitrazepam) for binding to these two receptors.
# (§4) Membrane preparation: HEK293 cells stably expressing human α5β3γ2 receptor or α2β3γ2 receptor were collected, suspended in 50 mM Tris-HCl buffer (pH=7.4), homogenized on ice by a homogenizer for 20 seconds 10 times, and centrifuged at 4° C., 1000 g for 10 min. The supernatant was collected, and the above steps were repeated. The supernatant was centrifuged (33800 g; centrifuge purchased from Thermo, rotor model: A27-8×50) at 4° C. for 60 min, and the precipitate was resuspended in Tris buffer (50 mM Tris-HCl, 10 mM MgCl2, 0.5 mM EDTA, 10% glycerol). The precipitate was the cell membrane. Protein content was determined by BCA (Bicinchoninic Acid) method (BCA kit from Pierce (Annoron)). The cell membrane was prepared into 1 ml aliquot and stored at −80° C.
# (§5) Radioligand competition binding assay: the assay was carried out in a 200 μL system (96-well plate from Agilent) with 100 μL of cell membrane. The concentration of ^3H-flunitazepam (from PerkinElmer, lot: NET567250 UC) was 1 nM and the concentration of test compound was in the range 1×10^−5-10^−6 M. Flumazenil (from Tocris; lot: 1318) was used as a control. 1 μL of 2 mM flumazenil (final concentration 10 μM) was added to the Low signal control well (Low control, LC) and 1 μL of DMSO (from Sigma aldrich, lot: 472301) was added to the High signal control well (High control, HC). The final target membrane protein concentration was 5 μg/well. All test compound sample stocks were 10 mM DMSO solutions. The working concentration of the samples is to dilute all samples with DMSO to 0.2 mM, and then perform 4-fold continuous gradient dilution for a total of 8 concentration gradients. The 96-well plate was sealed with a plate sealing membrane and then incubated on a shaker at room temperature for 1 hour. Meanwhile, GF/C filter plate was soaked with a plate soaking buffer (0.3% PEI, polyethyleneimine, purchased from Sigma aldrich, model: P314, stored at 4° C.) for at least 0.5 hours. After completion of binding incubation, the cells were collected with a cell collector onto the GF/C filter plate and washed four times with a plate washing buffer (50 mM Tris-HCl, pH 7.4, stored at 4° C.). […]
# [2] = target: human α5β3γ2 receptor (α5-GABAA receptor) (Homo sapiens (Human), UniProt P18507+P31644); experiment: Radioligand (3H-flunitrazepam) competition binding assay, BZD site; settings: 3H-flunitrazepam 1 nM; HEK293 membranes expressing human α5β3γ2
# From the text: as §1, §2, §3, §4, §5
# α5-GABAA receptor = α5-GABAA receptor (Homo sapiens (Human), UniProt P18507+P31644); experiment: Whole-cell patch clamp electrophysiology, inverse regulation activity in α5β3γ2-HEK293 cells; format: cell-based; settings: compound 100 nM; GABA 0.05-0.06 μM (about EC7-8); clamped at −60 mV; read-out: Inverse regulation efficiency to α5-GABAA receptor
# From the text: α, β and γ subunits are essential for the formation of a complete functional GABAA receptor. […] The specific subunit protein sequences are as follows: α5 subunit (protein sequence can be found in GenBank accession number: NM_000810.3); α2 subunit (protein sequence can be found in GenBank accession number: NM_000807.4); β3 subunit (protein sequence can be found in GenBank accession number: NM_000814.5); γ2 subunit (protein sequence can be found in GenBank accession number: NM_000816.3).
# as §2
# The inverse regulation activity of the test drugs on α5-GABAA receptor was detected by an electrophysiological method. The specific method was as follows:
# Compound concentration setting: the final concentration of the compounds used for compound screening was 100 nM. GABA concentration was 0.05-0.06 μM (about EC7-8). […] The extracellular fluid (ECS) ingredients for electrophysiology were as follows: 150 mM NaCl, 5 mM KCl, 2.5 mM CaCl2, 1 mM MgCl2, 10 mM HEPES and 10 mM glucose (pH 7.4); the electrode internal solution (ICS) formula for electrophysiology was as follows: 140 mM CsCl, 11 mM EGTA, 10 mM HEPES, 2 mM CaCl2, 1 mM MgCl2, 4 mM MgATP, 2 mM TEA (pH 7.3). The above reagents were all purchased from Sigma aldrich. GABA (γ-aminobutyric acid, from sigma aldrich, lot: A5385) powder was prepared into a stock solution with pure water and then diluted in ECS. The compound was first prepared into a 4 mM stock solution with DMSO, and then gradually diluted in corresponding concentrations of GABA-ECS. The solutions were all prepared fresh prior to electrophysiological testing.
# Electrophysiological signal acquisition were performed by using EPC 10 amplifier and PatchMaster software (HEKA) or Axon 700 B amplifier and Clampex software (AXON). The recording electrode was made by drawing borosilicate glass (purchased from sutter), and has an electrode resistance of 4˜6 MΩ. Extracellular administration was carried out using ALA-VC-8PG (purchased from ALA, USA) system. A single independently grown cell was selected, and lysis was performed after the glass electrode and the cell forming a good seal, to form a whole cell mode. With the cellular membrane potential clamped at −60 mV, recording was carried out in the Gap-free mode. For the test, extracellular fluid was first applied extracellularly for about 20 seconds. After baseline (Iprebaseline) was stabilized, the extracellular fluid was switched to GABA-ECS. At this time, the current (Igaba) caused by GABA can be detected. At about 20-40 seconds, after the current stabilized, the extracellular fluid was switched to a mixed solution of the compound and GABA-ECS, until the current (Itreatment) caused by both the compound and GABA can be detected. Finally, the solution was switched to the extracellular fluid and the test was terminated after recording for 20-40 seconds.
# The experimental results were analyzed using PatchMaster v2x90.1 or PatchMaster v2x90.3 software (EPC 10 amplifier) and Clampex10.6 software (Axon700B amplifier). The current value of each stage was calculated according to the average value of the stabilized current under the corresponding conditions. We defined the control current as Igaba−Iprebaseline, and the current after compound treatment as Itreatment−Iprebaseline. The inverse regulation activity of the compounds is expressed as a percentage and is calculated according to the following formula: Inverse regulation efficiency=[(Itreatment−Igaba)/(Igaba−Iprebaseline)]×100%.
# [3] = Stability in simulated gastric fluid (SGF); format: physicochemical; settings: 37° C., 1000 rpm
# Method: Simulated gastric fluid (SGF), Manufacturer: Dongguan Chuangfeng Automation Technology Co., Ltd.; Product model: CF-006.
# Oscillating constant temperature metal bath, Model: Thermo; Manufacturer: Digital Skaking Drybath.
# Temperature: 37° C.; rotating speed: 1000 rpm; sampling time: 0, 4 hours.
# Chromatographic column: Welch Xtimate C18 3.0×100 mm, 5 μm. Mobile phase: A: 0.04% trifluoroacetic acid (TFA)/H2O (v/v), B: acetonitrile (ACN). Gradient elution was performed according to the following table, flow rate: 1.0 mL/min; injection volume: 5 μL; column temperature: 35° C.; wavelength: 254 nm.
# • (a) preparation of 0.04% TFA/H2O: 400 μL of TFA was measured, placed into 1 L of H2O, and homogenously mixed; • (b) Sample stock solution: about 3 mg of test sample was weighed, and prepared into a stock solution of 10 mmol/L using DMSO; • (c) 50 μL of the sample stock solution was taken, placed into a 5 mL volumetric flask, made up to the scale with the addition of SGF, and homogenously mixed. 400 μL of the solution was taken, four samples in parallel, and shaken at 1000 rpm and 37° C.; • (d) every two samples were taken after 0 and 4 hours respectively, 400 μL of acetonitrile was added, and homogenously mixed, followed by liquid phase injection, and calculation of the change % of the main peak area in the solution after 4 hours relative to 0 hour, two average value reports being taken at each time point.
Compound,Selectivity α2 ki/α5 ki [1],Ki [2],inhibition at 0.1 µM (α5-GABAA receptor),Residual content in simulated gastric juice after 4 hours (compared with 0 hour content) [3]
"Cc1onc(-c2ccc(F)cc2)c1COc1ccc(-c2nnc3n2CCCOC3)cn1 [Compound 20, 3-(6-((3-(4-fluorophenyl)-5-methylisoxazol-4-yl)methoxy)pyridin-3-yl)-6,7-dihydro-5H,9H-[1,2,4]triazolo[3,4-c][1,4]oxazepane]",109 folds,11.2 nM,45%,–
"Cc1onc(-c2ccc(F)cc2)c1COc1cnc(-c2nnc3n2CCCC3)cn1 [Compound 32, 3-(4-fluorophenyl)-5-methyl-4-(((5-(5,6,7,8-tetrahydro-[1,2,4]triazolo[4,3-a]pyridin-3-yl)pyrazin-2-yl)oxy)methyl)isoxazole]",–,4.93 nM,35%,83% (4 hours)
"Cc1onc(-c2ccc(F)cc2)c1COc1cnc(N2CCN3CCOC[C@@H]3C2)cn1 [Compound 40, (S)-8-(5-((3-(4-fluorophenyl)-5-methylisoxazol-4-yl)methoxy)pyrazin-2-yl) octahydropyrazino [2,1-c][1,4]oxazine]",–,21.8 nM,18%,98% (4 hours)
"Cc1onc(-c2ccc(F)cc2)c1COc1cnc(-c2cnn3c2COCC3)cn1 [Compound 44, 3-(5-((3-(4-fluorophenyl)-5-methylisoxazol-4-yl)methoxy)pyrazin-2-yl)-6,7-dihydro-4H-pyrazolo[5,1-c][1,4]oxazine]",–,0.99 nM,36%,94% (4 hours)
"Cc1cn2c(n1)CN(c1cnc(OCc3c(-c4ccc(F)cc4)noc3C)cn1)CC2 [Compound 46, 3-(4-fluorophenyl)-5-methyl-4-(((5-(2-methyl-5,6-dihydroimidazo [1,2-a]pyrazin-7(8H)-yl)pyrazin-2-yl)oxy)methyl)isoxazole]",–,3.09 nM,21%,87% (4 hours)
"Cc1onc(-c2ccc(F)cc2)c1COc1cnc(N2CCn3ccnc3C2)cn1 [Compound 48, 4-(((5-(5,6-dihydroimidazo [1,2-a]pyrazin-7(8H)-yl)pyrazin-2-yl)oxy)methyl)-3-(4-fluorophenyl)-5-methylisoxazole]",–,68.5 nM,25%,88% (4 hours)
"Cc1onc(-c2ccc(F)cc2)c1COc1ccc(N2CCN3CCOC[C@@H]3C2)nn1 [Compound 49, (S)-8-[6-((3-(4-fluorophenyl)-5-methylisoxazol-4-yl)methoxy)pyridazin-3-yl] octahydropyrazino[2,1-c][1,4]oxazine]",–,3.84 nM,37%,31% (4 hours)
"Cc1onc(-c2ccc(F)cc2)c1COc1ccc(-n2nnc3c2CCOC3)cn1 [Compound 50, 1-(6-((3-(4-fluorophenyl)-5-methylisoxazol-4-yl)methoxy)pyridin-3-yl)-1,4,6,7-tetrahydropyran[3,4-d][1,2,3]triazole]",–,8.63 nM,49%,82% (4 hours)
"COc1ncc(-c2ccc(OCc3c(C)nnn3-c3ccc(C(F)F)cc3)nn2)cn1 [WO2020016443A1, Example 3, reference compound]",14.5 folds,–,–,–
"Cc1ncc(-c2ccc(OCc3c(C)nnn3-c3ccc(C(F)F)cc3)nn2)o1 [WO2020016443A1, Example 6, reference compound]",13.2 folds,–,–,–
"Cc1nnn(-c2ccc(C(F)F)cc2)c1COc1ccc(-n2cnc(C(F)F)c2)nn1 [WO2020016443A1, Example 15, reference compound]",7.67 folds,–,–,–
